Laboratory results taken from paper PMC9203742 (Nature Communications, 2022).
Values joined by “and” are separate entries in the source; they are usually repeats but may differ in a detail not shown here. Identical values can stand only once.

Columns and labels:
primary cortical neurons = assay: Fura-2 Ca2+ imaging (abnormal Ca2+ response) in cultured cortical neurons; conditions: co-treated 30 µM LY367385, 1 µM FITM or 10 µM U73122
mGlu1(N264H) mutant = target: T1, mGlu1(N264H) mutant (Rattus norvegicus, UniProt P23385, N264H); assay: Fura-2 Ca2+ imaging in HEK293 cells expressing mGlu1(N264H); format: cell-based; conditions: 10 µM LY367385, 1 µM FITM, 10 µM YM254890 or 1 µM U73122
T1 construct: expressed in transfected cells; host or cells: HEK293

[1] = target: T2, cell-surface mGlu1 in cerebellar slices of mGlu1^CBC/CBC mice (Mus musculus, UniProt P97772, N264H); assay: Confocal live imaging of cell-surface mGlu1 with FITM-Cy3 in acute cerebellar slices, mGlu1^CBC/CBC; format: binding
T2 construct: from tissue; host or cells: acute cerebellar slices of homozygous mGlu1(N264H) knock-in (mGlu1CBC/CBC) mice
Method: (§1) Sagittal cerebellar slices were cut with a microslicer (Linear slicer Pro7; DOSAKA EM) in cutting solution buffer and then incubated in ACSF gassed with 5% CO2 and 95% O2 at room temperature.
(§2) The cerebellar slices prepared from mGlu1^+/+ or mGlu1^CBC/CBC mice, were incubated with 10 nM FITM-Cy3 and 10 µg/mL Hoechst33342 for 30 min at room temperature in a humidified atmosphere of 5% CO2 and 95% O2. As a negative control, the cerebellar slices were incubated with 10 nM FITM-Cy3, 10 µg/mL Hoechst33342, and 500 nM FITM. Then, the slices were subjected to confocal live imaging using a confocal microscope (LSM900, Carl Zeiss). The fluorescence intensity of Cy3 at the molecular layer were quantified by ZEN blue software (Carl Zeiss).

[2] = target: T3, cell-surface mGlu1 in cerebellar slices of mGlu1^+/+ mice (Mus musculus, UniProt P97772); assay: Confocal live imaging of cell-surface mGlu1 with FITM-Cy3 in acute cerebellar slices, mGlu1^+/+; format: binding
T3 construct: from tissue; host or cells: acute cerebellar slices of mGlu1+/+ (C57BL/6J) mice
Method: as §1, §2

[3] = 10 nM FITM-Cy3 with excess (500 nM) FITM
[4] = mGlu1CBC/CBC, relative to Ave of mGlu1+/+ FITM (-) = 1
[5] = mGlu1+/+, relative to Ave of mGlu1+/+ FITM (-) = 1

T3 sequence (P97772 19-1199 limits assumed): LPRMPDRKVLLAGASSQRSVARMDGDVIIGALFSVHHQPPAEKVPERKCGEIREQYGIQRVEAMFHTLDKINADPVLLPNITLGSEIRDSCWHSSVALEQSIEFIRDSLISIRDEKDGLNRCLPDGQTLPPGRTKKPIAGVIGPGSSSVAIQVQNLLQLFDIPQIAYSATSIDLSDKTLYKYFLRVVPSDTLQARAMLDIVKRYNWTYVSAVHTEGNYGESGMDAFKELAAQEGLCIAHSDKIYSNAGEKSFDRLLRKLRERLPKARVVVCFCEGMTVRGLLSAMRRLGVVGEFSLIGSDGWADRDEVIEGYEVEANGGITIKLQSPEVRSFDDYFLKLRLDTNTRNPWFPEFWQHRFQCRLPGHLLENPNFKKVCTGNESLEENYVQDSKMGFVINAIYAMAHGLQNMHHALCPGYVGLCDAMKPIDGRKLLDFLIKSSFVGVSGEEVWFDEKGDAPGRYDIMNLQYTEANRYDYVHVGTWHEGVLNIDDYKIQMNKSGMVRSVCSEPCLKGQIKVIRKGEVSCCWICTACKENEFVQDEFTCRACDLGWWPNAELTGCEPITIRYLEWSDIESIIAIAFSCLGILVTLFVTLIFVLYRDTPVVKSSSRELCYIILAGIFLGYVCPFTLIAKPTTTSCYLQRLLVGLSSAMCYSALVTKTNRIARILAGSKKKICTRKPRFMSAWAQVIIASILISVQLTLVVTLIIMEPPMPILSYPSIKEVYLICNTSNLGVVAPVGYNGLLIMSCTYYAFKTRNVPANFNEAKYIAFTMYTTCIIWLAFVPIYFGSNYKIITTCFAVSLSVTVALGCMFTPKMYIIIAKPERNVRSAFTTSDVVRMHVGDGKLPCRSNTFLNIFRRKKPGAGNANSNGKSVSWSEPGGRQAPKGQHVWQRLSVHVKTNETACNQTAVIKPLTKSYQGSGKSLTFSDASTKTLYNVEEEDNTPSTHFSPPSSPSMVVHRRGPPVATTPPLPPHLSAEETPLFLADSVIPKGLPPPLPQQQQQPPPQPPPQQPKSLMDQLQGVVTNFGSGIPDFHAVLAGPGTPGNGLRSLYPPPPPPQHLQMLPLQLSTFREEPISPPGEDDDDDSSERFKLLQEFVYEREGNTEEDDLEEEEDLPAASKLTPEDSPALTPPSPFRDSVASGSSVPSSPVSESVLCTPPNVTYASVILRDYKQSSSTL
T2 sequence (P97772 19-1199 N264H limits assumed): as the sequence (P97772 19-1199 limits assumed) above, with N246H counted along it
T1 sequence (P23385 19-1199 N264H): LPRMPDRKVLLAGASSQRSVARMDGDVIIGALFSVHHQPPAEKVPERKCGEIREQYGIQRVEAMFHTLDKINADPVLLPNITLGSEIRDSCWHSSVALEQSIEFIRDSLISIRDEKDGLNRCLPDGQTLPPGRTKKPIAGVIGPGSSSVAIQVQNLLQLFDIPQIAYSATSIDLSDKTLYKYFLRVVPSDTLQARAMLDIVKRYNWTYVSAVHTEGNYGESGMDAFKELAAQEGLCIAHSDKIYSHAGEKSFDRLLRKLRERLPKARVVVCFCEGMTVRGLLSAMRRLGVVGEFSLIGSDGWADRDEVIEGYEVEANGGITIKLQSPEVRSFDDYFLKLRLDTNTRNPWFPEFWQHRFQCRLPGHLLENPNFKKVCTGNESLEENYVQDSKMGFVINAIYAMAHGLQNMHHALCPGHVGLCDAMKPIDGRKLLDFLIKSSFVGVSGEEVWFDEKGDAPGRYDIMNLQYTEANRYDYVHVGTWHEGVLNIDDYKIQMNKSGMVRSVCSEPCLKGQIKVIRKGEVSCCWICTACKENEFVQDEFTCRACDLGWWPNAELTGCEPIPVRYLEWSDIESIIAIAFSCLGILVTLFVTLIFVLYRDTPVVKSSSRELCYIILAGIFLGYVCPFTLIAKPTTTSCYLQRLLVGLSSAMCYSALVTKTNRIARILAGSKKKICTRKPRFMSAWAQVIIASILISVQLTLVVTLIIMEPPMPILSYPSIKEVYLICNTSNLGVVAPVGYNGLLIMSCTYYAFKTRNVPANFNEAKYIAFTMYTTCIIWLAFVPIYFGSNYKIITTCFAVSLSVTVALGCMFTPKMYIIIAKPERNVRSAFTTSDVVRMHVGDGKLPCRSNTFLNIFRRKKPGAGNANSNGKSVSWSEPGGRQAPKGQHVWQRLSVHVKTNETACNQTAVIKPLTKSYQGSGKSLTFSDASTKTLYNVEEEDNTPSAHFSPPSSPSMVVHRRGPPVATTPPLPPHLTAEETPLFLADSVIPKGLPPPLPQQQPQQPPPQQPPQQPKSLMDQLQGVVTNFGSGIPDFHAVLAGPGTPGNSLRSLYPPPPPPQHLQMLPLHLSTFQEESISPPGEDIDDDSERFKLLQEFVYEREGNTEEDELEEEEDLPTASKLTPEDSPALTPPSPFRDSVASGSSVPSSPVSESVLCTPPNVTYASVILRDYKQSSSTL

Effect of pre-treated inhibitor on 10 µM Pd(bpy)-induced Ca2+ responses (mGlu1(N264H) mutant): inhibited | Competition of FITM-Cy3 fluorescence in the molecular layer [1, 3]: disappearance of fluorescence | FITM-Cy3 signal with FITM (+), Ave (Fig.5d) [1, 4]: 0.1786 | Competition of FITM-Cy3 fluorescence in the molecular layer [2, 3]: disappearance of fluorescence | FITM-Cy3 signal with FITM (+), Ave (Fig.5d) [2, 5]: 0.2072
SMILES: CC(C)Nc1cc(-c2csc(N(C)C(=O)c3ccc(F)cc3)n2)ncn1 [FITM]
Effect of inhibitor on 30 µM Pd(bpy)-induced [Ca2+]i elevation (primary cortical neurons): suppressed by neither | FITM-Cy3 signal with FITM (+), individual values #1-#5 (Fig.5d) [1, 4]: 0.1218 and 0.08484 and 0.2076 and 0.2159 and 0.2628 | FITM-Cy3 signal with FITM (+), individual values #1-#5 (Fig.5d) [2, 5]: 0.08371 and 0.2036 and 0.1822 and 0.2639 and 0.3024
